Assay results published in PMC8132113 (Cancer letters, 2019).

Molecular target: ABCB1 (Homo sapiens, UniProt P08183)
Assay: vanadate-sensitive ATPase assay
Format: biochemical

Chain of ABCB1 (P08183 whole entry): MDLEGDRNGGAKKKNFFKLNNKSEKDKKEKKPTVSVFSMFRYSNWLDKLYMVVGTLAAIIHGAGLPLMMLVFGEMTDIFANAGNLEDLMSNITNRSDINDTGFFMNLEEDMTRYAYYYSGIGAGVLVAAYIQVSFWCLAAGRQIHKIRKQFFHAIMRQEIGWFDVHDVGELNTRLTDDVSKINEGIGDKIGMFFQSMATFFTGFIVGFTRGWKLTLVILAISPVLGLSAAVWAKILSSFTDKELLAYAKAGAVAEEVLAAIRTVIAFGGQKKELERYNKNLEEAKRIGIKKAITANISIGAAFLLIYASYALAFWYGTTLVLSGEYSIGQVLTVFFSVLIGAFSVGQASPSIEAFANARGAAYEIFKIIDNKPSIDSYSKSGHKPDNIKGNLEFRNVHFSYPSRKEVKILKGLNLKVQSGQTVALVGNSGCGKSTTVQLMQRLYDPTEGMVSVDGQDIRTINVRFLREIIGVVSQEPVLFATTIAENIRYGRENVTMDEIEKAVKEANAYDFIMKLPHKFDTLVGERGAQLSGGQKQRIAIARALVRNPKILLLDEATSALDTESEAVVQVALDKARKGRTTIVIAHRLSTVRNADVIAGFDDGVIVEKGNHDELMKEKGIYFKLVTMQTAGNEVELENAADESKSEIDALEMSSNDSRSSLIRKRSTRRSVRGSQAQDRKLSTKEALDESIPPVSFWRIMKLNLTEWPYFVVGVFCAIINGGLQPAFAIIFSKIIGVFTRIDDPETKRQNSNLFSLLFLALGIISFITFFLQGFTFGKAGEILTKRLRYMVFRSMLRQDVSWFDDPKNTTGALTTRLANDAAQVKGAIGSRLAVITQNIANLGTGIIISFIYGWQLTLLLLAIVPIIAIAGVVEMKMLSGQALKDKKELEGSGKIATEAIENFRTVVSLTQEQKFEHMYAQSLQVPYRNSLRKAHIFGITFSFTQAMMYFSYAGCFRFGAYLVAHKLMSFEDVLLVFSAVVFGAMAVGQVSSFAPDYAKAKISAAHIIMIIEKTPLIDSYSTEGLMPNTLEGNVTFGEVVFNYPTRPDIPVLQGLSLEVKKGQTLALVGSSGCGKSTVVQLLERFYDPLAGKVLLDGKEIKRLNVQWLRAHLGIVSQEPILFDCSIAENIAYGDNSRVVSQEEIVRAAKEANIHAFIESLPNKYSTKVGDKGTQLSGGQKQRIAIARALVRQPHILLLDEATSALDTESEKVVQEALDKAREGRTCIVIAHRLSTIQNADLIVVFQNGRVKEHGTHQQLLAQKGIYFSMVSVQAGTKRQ

In the case of CO[C@@H]1[C@H](N(C)C(=O)c2ccccc2)C[C@H]2O[C@]1(C)n1c3ccccc3c3c4c(c5c6ccccc6n2c5c31)C(=O)NC4 [midostaurin], the IC50 is reported as ~10 µM.
